Measured values as given in the supplement of paper PMC10307832.

How the values were obtained:
Assay in all cases: relative viability (nuclei count vs DMSO), 5 days (fraction); higher = more cells survive
Wnt-C59 + Bortezomib = compound: CC1=NC=CC(=C1)C2=CC=C(C=C2)CC(=O)NC3=CC=C(C=C3)C4=CN=CC=C4 [Wnt-C59] + CC(C)C[C@H](NC(=O)[C@H](Cc1ccccc1)NC(=O)c1cnccn1)B(O)O [Bortezomib] (partner 0.002 µM)
In short: (§1)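 Relative viability was taken as the ratio of nuclei in treated wells to nuclei in vehicle wells. Lung cancer cell lines in 1536-well plates received compounds by pin tool one day after seeding, either one drug alone or a fixed anchor-drug dose plus five library-drug doses (not always all listed) in √10 steps. Nuclei were counted on 4× images after 5 days of treatment, and values are medians of duplicate plates.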

Wnt-C59 + Foretinib = compound: CC1=NC=CC(=C1)C2=CC=C(C=C2)CC(=O)NC3=CC=C(C=C3)C4=CN=CC=C4 [Wnt-C59] + COc1cc2c(Oc3ccc(NC(=O)C4(C(=O)Nc5ccc(F)cc5)CC4)cc3F)ccnc2cc1OCCCN1CCOCC1 [Foretinib] (partner 0.25 µM)
In short: as §1

Wnt-C59 + Pemetrexed = compound: CC1=NC=CC(=C1)C2=CC=C(C=C2)CC(=O)NC3=CC=C(C=C3)C4=CN=CC=C4 [Wnt-C59] + Nc1nc2[nH]cc(CCc3ccc(C(=O)N[C@@H](CCC(=O)O)C(=O)O)cc3)c2c(=O)[nH]1 [Pemetrexed] (partner 0.2 µM)
In short: as §1

Lapatinib + Bortezomib = compound: CS(=O)(=O)CCNCc1ccc(-c2ccc3ncnc(Nc4ccc(OCc5cccc(F)c5)c(Cl)c4)c3c2)o1 [Lapatinib] + CC(C)C[C@H](NC(=O)[C@H](Cc1ccccc1)NC(=O)c1cnccn1)B(O)O [Bortezomib] (partner 0.002 µM)
In short: as §1

| Cell Line | relative viability (Wnt-C59 + Bortezomib; first compound 0.001 µM) | relative viability (Wnt-C59 + Bortezomib; first compound 0.01 µM) | relative viability (Wnt-C59 + Bortezomib; first compound 0.03162 µM) | relative viability (Wnt-C59 + Bortezomib; first compound 0.1 µM) | relative viability (Wnt-C59 + Foretinib; first compound 0.001 µM) | relative viability (Wnt-C59 + Foretinib; first compound 0.01 µM) | relative viability (Wnt-C59 + Foretinib; first compound 0.03162 µM) | relative viability (Wnt-C59 + Foretinib; first compound 0.1 µM) | relative viability (Wnt-C59 + Pemetrexed; first compound 0.001 µM) | relative viability (Wnt-C59 + Pemetrexed; first compound 0.01 µM) | relative viability (Wnt-C59 + Pemetrexed; first compound 0.03162 µM) | relative viability (Wnt-C59 + Pemetrexed; first compound 0.1 µM) | relative viability (Lapatinib + Bortezomib; first compound 0.02 µM) | relative viability (Lapatinib + Bortezomib; first compound 0.06325 µM) | relative viability (Lapatinib + Bortezomib; first compound 0.2 µM) | relative viability (Lapatinib + Bortezomib; first compound 0.6325 µM) | relative viability (Lapatinib + Bortezomib; first compound 2 µM) |
| --- | --- | --- | --- | --- | --- | --- | --- | --- | --- | --- | --- | --- | --- | --- | --- | --- | --- |
| NCI-H2405 | 0.978 | 0.962 | 0.944 | 0.95 | 1.04 | 0.94 | 0.938 | 0.941 | 1.02 | 1.01 | 0.989 | 1.08 | 0.66 | 0.946 | 1.06 | 0.963 | 0.854 |
| NCI-H1666 | 0.797 | 0.749 | 0.807 | 0.89 | 0.894 | 0.994 | 0.92 | 0.985 | 0.865 | 0.799 | 0.828 | 0.869 | 0.761 | 0.619 | 0.848 | 0.877 | 0.378 |
| NCI-H322M | 1.25 | 1.25 | 1.23 | 1.12 | 0.879 | 0.802 | 0.896 | 0.68 | 0.649 | 0.589 | 0.579 | 0.569 | 1.12 | 1.02 | 1.08 | 1.23 | 1.3 |
| NCI-H1563 | 0.863 | 0.917 | 0.901 | 0.835 | 0.911 | 0.931 | 0.926 | 0.898 | 0.736 | 0.751 | 0.723 | 0.705 | 0.952 | 0.741 | 0.826 | 0.902 | 0.834 |
| IA-LM | 0.942 | 0.713 | 0.91 | 0.724 | 1.23 | 1.01 | 1.11 | 1.03 | – | – | – | – | 0.787 | 0.788 | 0.893 | 0.88 | 0.839 |
| CAL-12T | 0.979 | – | 0.875 | 1.14 | 1.28 | 1.1 | 1.06 | 1.09 | 1.33 | 1.18 | 1.29 | 1.09 | – | 0.765 | 0.822 | 0.743 | 0.649 |
| NCI-H1395 | – | – | – | – | 0.99 | 1.01 | 0.984 | 1 | 0.968 | 0.861 | 0.94 | 0.885 | – | – | – | – | – |
| NCI-H3122 | 0.998 | 0.972 | 1.04 | 0.958 | 0.933 | 0.978 | 0.989 | 0.946 | 0.219 | 0.216 | 0.197 | 0.195 | 0.927 | 1 | 0.965 | 0.972 | 1.02 |
| HARA | 1.1 | 1.01 | 1.19 | 1.15 | 0.823 | 0.765 | 1.01 | 0.841 | 0.206 | 0.206 | 0.26 | 0.237 | 1.08 | 0.579 | 1.05 | 0.961 | 0.694 |
| EBC-1 | 0.638 | 0.617 | 0.394 | 0.591 | 0.112 | 0.11 | 0.126 | 0.106 | – | – | – | – | 0.542 | 0.561 | 0.539 | 0.534 | 0.455 |
